Experimental data: patent publication US10683553B2, “Method for determining sensitivity to simultaneous inhibitor against PARP and Tankyrase” (THE ASAN FOUNDATION, priority 2015, dated 2020)

Assays:
Assay type in all cases: cell-based
[1] = tested on: RKO human colon cancer cell line; assay: Western blot of r-H2AX and cleaved caspase 3; conditions: 50 μM, 48 hours
Excerpt: (§1) In order to analyze the degree of DNA damage and the degree of apoptosis of Compound A, which is a novel PARP/Tankyrase simultaneous inhibitor, when the p53 gene is a normal type and the LIG4 gene is a mutant type, the present inventors treated a novel PARP/Tankyrase simultaneous inhibitor, Compound A, and the competitive drug PARP inhibitor; olaparib, in the HCT116 human colon cancer cell line in which the p53 gene and an LIG4 gene are normal types and in the RKO human colon cancer cell line in which the p53 gene is a normal type and an LIG4 gene is a mutant type, and then confirmed the DNA damage with the expression level of r-H2Ax by western blotting method and confirmed the degree of apoptosis with the expression level of cleaved caspase 3. The conditions and method of the experiment were as follows: The HCT116 human colon cancer cell line in which the p53 gene and an LIG4 gene are normal types and the RKO human colon cancer cell line in which the p53 gene is a normal type and an LIG4 gene is a mutant type were cultured in RPMI1640 (10% FBS, 1% penicillin/streptomycin) and cultured in a 60 mm plate at 1×10^5 per well for 24 hours at 37° C. Compound A, which is a novel PARP/Tankyrase simultaneous inhibitor, and olaparib, which is a competitive drug PARP inhibitor, were treated with 50 μM each and were cultured for 48 hours. Then, the cells were obtained using a centrifuge. Each cell thus obtained was dissolved using an RIPA buffer, and the proteins were extracted using a high-speed centrifuge. 30 μg protein per cell was electrophoresed by western blot method to separate proteins and transferred to PDVF membrane. The r-H2AX, truncated caspase 3, and b-actin antibody were diluted with each 1:2000 in 5% skim milk. Then, the cells were reacted at 4° C. for 12 hours and then washed three times for 15 minutes with TBS-T buffer. The secondary antibody was diluted with each 1:2000 ratio in 5% skim milk and reacted at room temperature for 2 hours. It was washed with TBS-T buffer three times for 15 minutes to induce luminescence of PDVF membrane using ECL (Enhanced Chemiluminescence) buffer solution to develop protein expression on each anti-body using an X-ray film.

[2] = tested on: HCT116 human colon cancer cell line; assay: Western blot of r-H2AX and cleaved caspase 3; conditions: 50 μM, 48 hours
Excerpt: as §1

[3] = tested on: Colo201 colon cancer cell line; assay: MTS cell viability / IC50; conditions: Homo sapiens, COLO 201
Procedure: (§2) The present inventors conducted an in vitro cell base assay to analyze the anticancer activity of Compound A, which is a novel PARP/Tankyrase simultaneous inhibitor, in 18 human colon cancer cell lines (Korean Cell Line Bank and ATCC purchased), and the cell viability and IC50 of the cell lines for Compound A, the novel PARP/Tankyrase simultaneous inhibitor, were measured.
(§3) As the experimental conditions and methods, a total of 18 human colon cancer cell lines were cultured in RPMI1640 (Roswell Park Memorial Institute 1640; 10% FBS, 1% penicillin/streptomycin), and each cell line was cultured in 96 well plate for 2×10^3 per well at 37° C. for 24 hours and the novel PARP/Tankyrase simultaneous inhibitor, Compound A, was diluted by a multiple of 2 at a maximum of 100 μM and a minimum of 0.390625 μM (100 μM, 50 μM, 25 μM, 12.5 μM, 6.25 μM, 3.125 μM, 1.5625 μM, 0.78125 μM and 0.390625 μM). After the treatment, it was cultured at 37° C. for 72 hours. As for the drug treatment group and non-treatment group, the cell viability of each cell line was measured by MTS analysis (Promega, CellTiter 96 AQeous One Solution) and the IC50 of each cell line was measured using the PRISM program.
(§4) The present inventors analyzed the correlation of 18 human colon cancer cell lines, an anti-cancer effect of Compound A which is a novel PARP/Tankyrase simultaneous inhibitor and the genotype of the p53 gene through an in vitro cell base assay in the same experimental method as Example 1 in 18 human colon cancer cell lines.

[4] = tested on: SW48 colon cancer cell line; assay: MTS cell viability / IC50; conditions: Homo sapiens
Procedure: as §2, §3, §4

[5] = tested on: LoVo colon cancer cell line; assay: MTS cell viability / IC50; conditions: Homo sapiens
Procedure: as §2, §3, §4

[6] = tested on: HT-29 colon cancer cell line; assay: MTS cell viability / IC50; conditions: Homo sapiens
Procedure: as §2, §3, §4

[7] = tested on: Ls1034 colon cancer cell line; assay: MTS cell viability / IC50; conditions: Homo sapiens, LS-1034
Procedure: as §2, §3, §4

[8] = tested on: SW1417 colon cancer cell line; assay: MTS cell viability / IC50; conditions: Homo sapiens
Procedure: as §2, §3, §4

[9] = tested on: Colo320HSR colon cancer cell line; assay: MTS cell viability / IC50; conditions: Homo sapiens, COLO-320-HSR
Procedure: as §2, §3, §4

[10] = tested on: DLD-1 colon cancer cell line; assay: MTS cell viability / IC50; conditions: Homo sapiens
Procedure: as §2, §3, §4

[11] = tested on: HCT116 colon cancer cell line; assay: MTS cell viability / IC50; conditions: Homo sapiens, HCT-116
Procedure: as §2, §3, §4

[12] = tested on: Caco-2 colon cancer cell line; assay: MTS cell viability / IC50; conditions: Homo sapiens
Procedure: as §2, §3, §4

[13] = tested on: Ls174T colon cancer cell line; assay: MTS cell viability / IC50; conditions: Homo sapiens
Procedure: as §2, §3, §4

[14] = tested on: HCT-15 colon cancer cell line; assay: MTS cell viability / IC50; conditions: Homo sapiens
Procedure: as §2, §3, §4

[15] = tested on: Colo205 colon cancer cell line; assay: MTS cell viability / IC50; conditions: Homo sapiens, COLO 205
Procedure: as §2, §3, §4

CCOc1cc(CN(C)C)cc2[nH]c(=O)c3c(c12)NCCC3 [Compound A, 8-[(dimethylamino)methyl]-10-ethoxy-1,2,3,4-tetrahydrobenzo[h][1,6]naphthyridin-5(6H)-one]
expression amount of truncated caspase 3 (western blot) [1]: increased expression amount of the truncated caspase 3
expression of r-H2AX (western blot) [1]: increased expression of r-H2AX than the group treated with olaparib
expression amount of truncated caspase 3 (western blot) [2]: increased expression amount of the truncated caspase 3
expression of r-H2AX (western blot) [2]: increased expression of r-H2AX than the group treated with olaparib
IC50 ([3]; Colo201, p53 Mutant type cell line): 28.4 µM
IC50 ([3]; Colo201, MTS, 72 hours): 28.4 µM
IC50 ([4]; SW48, p53 Wild-type cell line): > 100 µM
IC50 ([4]; SW48, MTS, 72 hours): > 100 µM
IC50 ([5]; MTS, 72 hours): 18.6 µM
IC50 ([5]; p53 Wild-type cell line): 18.6 µM
IC50 ([6]; HT29, p53 Mutant type cell line): 32.2 µM
IC50 ([6]; MTS, 72 hours): 32.2 µM
IC50 ([7]; LS1034, p53 Mutant type cell line): > 100 µM
IC50 ([7]; Ls1034, MTS, 72 hours): > 100 µM
IC50 ([8]; SW1417, p53 Mutant type cell line): > 100 µM
IC50 ([8]; SW1417, MTS, 72 hours): > 100 µM
IC50 ([9]; Colo320, MTS, 72 hours): 8.27 µM
IC50 ([9]; Colo320HSR, p53 Mutant type cell line): 8.27 µM
IC50 ([10]; DLD-1, p53 Mutant type cell line): 85.6 µM
IC50 ([10]; DLD-1, MTS, 72 hours): 85.6 µM
IC50 ([11]; HCT116, p53 Wild-type cell line): 13.2 µM
IC50 ([11]; HCT116, MTS, 72 hours): 13.2 µM
IC50 ([12]; Caco-2, p53 Mutant type cell line): 19.2 µM
IC50 ([12]; Caco-2, MTS, 72 hours): 19.2 µM
IC50 ([13]; LS174T, p53 Wild-type cell line): 12.2 µM
IC50 ([13]; Ls174T, MTS, 72 hours): 12.2 µM
IC50 ([14]; HCT-15, p53 Mutant type cell line): > 100 µM
IC50 ([14]; HCT-15, MTS, 72 hours): > 100 µM
IC50 ([15]; Colo205, p53 Mutant type cell line): 24.4 µM
IC50 ([15]; Colo205, MTS, 72 hours): 24.4 µM
